Measurements as given in patent EP4810040A2, “INHIBITORS OF APOL1 AND METHODS OF USING SAME” (priority 2020, dated 2022).
Read-outs that look alike come from different tables or passages of the source.

Target: T1, APOL1 G1 (Homo sapiens, UniProt O14791, I384M/S342G)
T1 sequence (O14791 28-398 S342G/I384M): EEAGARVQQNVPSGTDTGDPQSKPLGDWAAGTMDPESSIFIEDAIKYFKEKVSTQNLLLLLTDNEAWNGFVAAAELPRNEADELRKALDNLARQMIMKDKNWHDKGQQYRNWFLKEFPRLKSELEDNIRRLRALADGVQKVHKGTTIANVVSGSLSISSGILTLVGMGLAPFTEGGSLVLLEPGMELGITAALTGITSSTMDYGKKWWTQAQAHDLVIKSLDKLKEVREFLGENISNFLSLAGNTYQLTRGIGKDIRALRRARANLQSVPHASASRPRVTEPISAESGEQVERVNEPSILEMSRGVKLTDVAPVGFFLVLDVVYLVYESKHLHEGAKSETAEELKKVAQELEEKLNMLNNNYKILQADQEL
Assay: MultiTox-Fluor Multiplex Cytotoxicity Assay, tet-inducible APOL1 G1 T-REx-HEK293 cells
Type: cell-based
Design: expressed in transfected cells; host or cells: T-REx HEK293, clone G1 DC3.25 (pAAVS1-Puro-APOL1 G1)
Conditions: for IC90: read-out: Multi-Tox Assay IC90; for IC50: IP50 = IC50 for cell proliferation; for Emax: read-out: Multi-Tox Assay Max Activity (%)
In short: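 T-REx-HEK293 cells carrying tet-inducible APOL1 G1 induced with 50 ng/mL tet alongside compound (top 10 µM, 10-point 3-fold, duplicate) for 24 h at 37 °C. MultiTox-Fluor dead/live protease fluorescence ratio read after 30 min; normalized to no-tet (100% viability) and tet-treated (0%) controls, then curve-fitted.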

[1] = HEK293, Multi-Tox Assay, APOL1 variant (G0/G1/G2) of the HEK293 cells not given
[2] = Multi-Tox Assay, APOL1 variant not given
[3] = Multi-Tox Assay, APOL1 variant (G0/G1/G2) not stated in Table 46
[4] = Multi-Tox Assay, APOL1 variant not stated in Table 46

| SMILES | IC90 [1] | Multi-Tox Assay Max Activity (%) [2] | IC90 [3] | also measured |
| --- | --- | --- | --- | --- |
| C[C@H]1C[C@@]2(C[C@@H](c3cn(Cc4ccccn4)nn3)N1)OCC(F)(F)c1cc(Cl)sc12 [Compound 332] | 50 to 500 nM | 96.0% | – | – |
| COc1cc(F)cc(Cn2cc([C@@H]3C[C@]4(C[C@H](C)N3)OCC(F)(F)c3cc(Cl)sc34)nn2)c1 [Compound 333] | 50 to 500 nM | 97.0% | – | – |
| Cc1ccc(Cn2cc([C@@H]3C[C@]4(C[C@H](C)N3)OCC(F)(F)c3cc(Cl)sc34)nn2)nc1 [Compound 334] | > 500 nM | 96.0% | – | – |
| COc1ccc(Cn2cc([C@@H]3C[C@]4(C[C@H](C)N3)OCC(F)(F)c3cc(Cl)sc34)nn2)cc1 [Compound 335] | > 500 nM | 96.0% | – | – |
| Cc1cc(Cn2cc([C@@H]3C[C@]4(C[C@H](C)N3)OCC(F)(F)c3cc(Cl)sc34)nn2)ccn1 [Compound 336] | 50 to 500 nM | – | – | – |
| Cc1nc(Cn2cc([C@@H]3C[C@]4(C[C@H](C)N3)OCC(F)(F)c3cc(Cl)sc34)nn2)oc1C [Compound 337] | 50 to 500 nM | – | – | – |
| Cc1nnc(Cn2cc([C@@H]3C[C@]4(C[C@H](C)N3)OCC(F)(F)c3cc(Cl)sc34)nn2)[nH]1 [Compound 339] | 50 to 500 nM | 97.0% | – | – |
| COCCOCCn1cc([C@@H]2C[C@]3(C[C@H](C)N2)OCC(F)(F)c2cc(Cl)sc23)nn1 [Compound 340] | 50 to 500 nM | 98.0% | – | – |
| Cc1nccn1CCCn1cc([C@@H]2C[C@]3(C[C@H](C)N2)OCC(F)(F)c2cc(Cl)sc23)nn1 [Compound 341] | > 500 nM | 98.0% | – | – |
| COCC(O)Cn1cc([C@@H]2C[C@]3(C[C@H](C)N2)OCC(F)(F)c2cc(Cl)sc23)nn1 (stereo partly shown) [Compound 342] | 50 to 500 nM | 98.0% | – | – |
| C[C@H]1C[C@@]2(C[C@@H](c3cn(CC4CCCCO4)nn3)N1)OCC(F)(F)c1cc(Cl)sc12 (stereo partly shown) [Compound 343] | 50 to 500 nM | 97.0% | – | – |
| C[C@H]1C[C@@]2(C[C@@H](c3cn(CCCS(C)(=O)=O)nn3)N1)OCC(F)(F)c1cc(Cl)sc12 [Compound 344] | 50 to 500 nM | – | – | – |
| CC(C)C(=O)NCCn1cc([C@@H]2C[C@]3(C[C@H](C)N2)OCC(F)(F)c2cc(Cl)sc23)nn1 [Compound 345] | 50 to 500 nM | – | – | – |
| C[C@H]1C[C@@]2(C[C@@H](c3cn(Cc4nc5ncccc5[nH]4)nn3)N1)OCC(F)(F)c1cc(Cl)sc12 [Compound 346] | 50 to 500 nM | – | – | – |
| C[C@H]1C[C@@]2(C[C@@H](c3cn(Cc4ccccc4S(C)(=O)=O)nn3)N1)OCC(F)(F)c1cc(Cl)sc12 [Compound 347] | 50 to 500 nM | 96.0% | – | – |
| COc1ccc(C(O)Cn2cc([C@@H]3C[C@]4(C[C@H](C)N3)OCC(F)(F)c3cc(Cl)sc34)nn2)cc1 (stereo partly shown) [Compound 348] | > 500 nM | 97.0% | – | – |
| C[C@H]1C[C@@]2(C[C@@H](c3cn(Cc4n[nH]c5ccccc45)nn3)N1)OCC(F)(F)c1cc(Cl)sc12 [Compound 349] | > 500 nM | 91.0% | – | – |
| C[C@H]1C[C@@]2(C[C@@H](c3cn(Cc4ncnc5[nH]ccc45)nn3)N1)OCC(F)(F)c1cc(Cl)sc12 [Compound 350] | 50 to 500 nM | – | – | – |
| Cc1cc(C)nc(CCn2cc([C@@H]3C[C@]4(C[C@H](C)N3)OCC(F)(F)c3cc(Cl)sc34)nn2)c1 [Compound 351] | 50 to 500 nM | 98.0% | – | – |
| C[C@H]1C[C@@]2(C[C@@H](c3cn(Cc4ccc(C#N)nc4)nn3)N1)OCC(F)(F)c1cc(Cl)sc12 [Compound 352] | 50 to 500 nM | – | – | – |
| Cc1noc(C)c1Cn1cc([C@@H]2C[C@]3(C[C@H](C)N2)OCC(F)(F)c2cc(Cl)sc23)nn1 [Compound 353] | < 50 nM | 100.0% | – | – |
| C[C@H]1C[C@@]2(C[C@@H](c3cn(CCOc4ccccc4F)nn3)N1)OCC(F)(F)c1cc(Cl)sc12 [Compound 354] | 50 to 500 nM | – | – | – |

| SMILES | IC90 [1] | Multi-Tox Assay Max Activity (%) [2] | IC90 [3] | also measured |
| --- | --- | --- | --- | --- |
| C[C@H]1C[C@@]2(C[C@@H](c3cn(Cc4ccc(S(C)(=O)=O)cc4)nn3)N1)OCC(F)(F)c1cc(Cl)sc12 [Compound 355] | 50 to 500 nM | 98.0% | – | – |
| C[C@H]1C[C@@]2(C[C@@H](c3cn(CC4(CO)CC4)nn3)N1)OCC(F)(F)c1cc(Cl)sc12 [Compound 357] | 50 to 500 nM | – | – | – |
| C[C@H]1C[C@@]2(C[C@@H](c3cn(Cc4cnc5cnccn45)nn3)N1)OCC(F)(F)c1cc(Cl)sc12 [Compound 358] | < 50 nM | 98.0% | – | – |
| C[C@H]1C[C@@]2(C[C@@H](c3cn(CCCO)nn3)N1)OCC(F)(F)c1cc(Cl)sc12 [Compound 359] | < 50 nM | 98.0% | – | – |
| COc1ccc(Cn2cc([C@@H]3C[C@]4(C[C@H](C)N3)OCC(F)(F)c3cc(Cl)sc34)nn2)cn1 [Compound 360] | 50 to 500 nM | – | – | – |
| C[C@H]1C[C@@]2(C[C@@H](c3cn(CCO)nn3)N1)OCC(F)(F)c1cc(Cl)sc12 [Compound 361] | – | – | 50 to 500 nM | Multi-Tox Assay Max Activity (%) [4]: 98.0% |
| COc1ccc(Cn2cc([C@@H]3C[C@]4(C[C@H](C)N3)OCC(F)(F)c3cc(Cl)sc34)nn2)cc1F [Compound 362] | – | – | 50 to 500 nM | Multi-Tox Assay Max Activity (%) [4]: 98.0%; IC50 [4]: 50 to 500 nM |
| C[C@H]1C[C@@]2(C[C@@H](c3cn(C[C@@H](O)CO)nn3)N1)OCC(F)(F)c1cc(Cl)sc12 [Compound 363] | – | – | 50 to 500 nM | – |
| C[C@H]1C[C@@]2(C[C@@H](c3cn(CC(C)(C)O)nn3)N1)OCC(F)(F)c1cc(Cl)sc12 [Compound 364] | – | – | > 500 nM | Multi-Tox Assay Max Activity (%) [4]: 95.0%; IC50 [4]: 50 to 500 nM |
| C[C@H]1C[C@@]2(C[C@@H](c3cn(Cc4cncs4)nn3)N1)OCC(F)(F)c1cc(Cl)sc12 [Compound 365] | – | – | 50 to 500 nM | – |
| C[C@H]1C[C@@]2(C[C@@H](c3cn(Cc4ccc5nc(O)[nH]c5c4)nn3)N1)OCC(F)(F)c1cc(Cl)sc12 [Compound 366] | – | – | > 500 nM | Multi-Tox Assay Max Activity (%) [4]: 95.0%; IC50 [4]: 50 to 500 nM |
| C[C@H]1C[C@@]2(C[C@@H](c3cn(CCC(C)(C)O)nn3)N1)OCC(F)(F)c1cc(Cl)sc12 [Compound 367] | – | – | < 50 nM | – |
| C[C@H]1C[C@@]2(C[C@@H](c3cn(CC4CCC(=O)NC4)nn3)N1)OCC(F)(F)c1cc(Cl)sc12 (stereo partly shown) [Compound 368] | – | – | > 500 nM | Multi-Tox Assay Max Activity (%) [4]: 96.0%; IC50 [4]: 50 to 500 nM |
| C[C@H]1C[C@@]2(C[C@@H](c3cn(CC#N)nn3)N1)OCC(F)(F)c1cc(Cl)sc12 [Compound 369] | – | – | > 500 nM | Multi-Tox Assay Max Activity (%) [4]: 98.0%; IC50 [4]: 50 to 500 nM |
| CC(CO)Cn1cc([C@@H]2C[C@]3(C[C@H](C)N2)OCC(F)(F)c2cc(Cl)sc23)nn1 (stereo partly shown) [Compound 370] | – | – | 50 to 500 nM | IC50 [4]: 50 to 500 nM |
| COC(=O)C1([C@@H]2C[C@]3(C[C@H](C)N2)OCCc2cc(Cl)sc23)CC1 [Compound 372, methyl 1-[(2'S,6'S,7S)-2-chloro-6'-methyl-spiro[4,5-dihydrothieno[2,3-c]pyran-7,4'-piperidine]-2'-yl]cyclopropanecarboxylate] | – | – | > 500 nM | Multi-Tox Assay Max Activity (%) [4]: 92.0% |
| C[C@H]1C[C@@]2(C[C@@H](C3(N)CC3)N1)OCCc1cc(Cl)sc12 [Compound 373, 1-[(2'S,6'S,7S)-2-chloro-6'-methyl-spiro[4,5-dihydrothieno[2,3-c]pyran-7,4'-piperidine]-2'-yl]cyclopropanamine] | – | – | 50 to 500 nM | – |
| CC(=O)NC1([C@@H]2C[C@]3(C[C@H](C)N2)OCCc2cc(Cl)sc23)CC1 [Compound 379, N-[1-[(2'S,6'S,7S)-2-chloro-6'-methyl-spiro[4,5-dihydrothieno[2,3-c]pyran-7,4'-piperidine]-2'-yl]cyclopropyl]acetamide] | – | – | > 500 nM | Multi-Tox Assay Max Activity (%) [4]: 94.0% |
| C[C@H]1C[C@@]2(C[C@@H](C3(CO)CC3)N1)OCCc1cc(Cl)sc12 [Compound 380, [1-[(2'S,6'S,7S)-2-chloro-6'-methyl-spiro[4,5-dihydrothieno[2,3-c]pyran-7,4'-piperidine]-2'-yl]cyclopropyl]methanol] | – | – | 50 to 500 nM | – |
| Cn1cc([C@@H]2C[C@]3(C[C@H](C4CC4)N2)OCCc2cc(Cl)sc23)nn1 [Compound 381, (2'R,6'S,7S)-2-chloro-2'-cyclopropyl-6'-(1-methyltriazol-4-yl)spiro[4,5-dihydrothieno[2,3-c]pyran-7,4'-piperidine]] | – | – | < 50 nM | Emax [4]: 100% |
| Cn1cc([C@@H]2C[C@]3(C[C@H](C4CC4)N2)OC[C@@H](O)c2cc(Cl)sc23)nn1 [Compound 382, (2'R,4S,6'S,7S)-2-chloro-2'-cyclopropyl-6'-(1-methyltriazol-4-yl)spiro[4,5-dihydrothieno[2,3-c]pyran-7,4'-piperidine]-4-ol] | – | – | 50 to 500 nM | Emax [4]: 100% |
